Assay results from US8895526B2, “Identification of RNAI targets and use of RNAI for rational therapy of chemotherapy-resistant leukemia and other cancers” (Cold Spring Harbor Laboratory, priority 2009, dated 2014).

What was measured:
[1] = system: MLL-AF9/Nras leukemia cells; settings: different concentrations
[2] = system: non-transformed 32D cell line; settings: different concentrations
[3] = Tolerability of anthracycline in mice; format: in vivo; settings: applied intraperitoneally
Method: To study factors that influence the outcome of conventional AML therapy in mice, we established a simple chemotherapy regimen involving intraperitoneal injection of cytarabine (100 mg/kg over 5 days) and doxorubicin (3 mg/kg over 3 days; FIG. 36A), which mimics the standard induction therapy used to treat AML in human patients. […] Efficacy and safety of this regimen were initially evaluated in a previously described model based on co-transduction of MLL/ENL and FLT3-ITD (Ono et al. 2005). In order to rapidly generate homogenous treatment cohorts we harvested bone marrow and spleen from terminally ill primary FLC recipient mice and transplanted 1 million leukemia cells into 20-30 secondary recipients. In initial studies, we noted that this combination therapy was not tolerated in mice when treatment was initiated based on a high leukemia burden in the peripheral blood; although the peripheral disease disappeared within two days, animals died shortly thereafter with peripheral leukopenia.

HCT116 cells = experiment: siRNA cytotoxicity: reduction in HCT116 culture confluency after transfection; format: cell-based, human; settings: relative to negative control RNAi cultures
Method: siRNAs derived from the shRNAs of Example 2 were all highly cytotoxic to HCT116 cells. The siRNA sequences and shRNAs from which they were derived are shown below
Cytotoxicity was determined by the reduction in culture confluency over time after transfection of the siRNA relative to negative control RNAi cultures.

[4] = system: Mouse hepatocellular carcinoma cells (Hepa1.6); experiment: Hepa1.6 colony formation assay; format: cell-based; settings: high MOI, low density plating, crystal violet
Method: (FIG. 8A) Mouse hepatocellular carcinoma cells (Hepa1.6) were transduced at high MOI with shRNAs targeting replication genes. Cells were plated at low density, stained with crystal violet, and staining was quantified on a Licor scanner. Values are normalized to empty vector control. (FIG. 8B) Representative scans of colony formation assays of cells infected with an antiproliferative shRNA (top—shRpa3.457) or empty vector control (bottom).
An assay similar to that described in Example 1 was used to test the effect of RNAi molecules against genes encoding DNA replication proteins in mouse cancer cells (Hepa1.6). Similar results in mouse cells were observed as compared to human cells (FIG. 8 and FIG. 9). For example, mouse tumors regress upon induction of RNAi against Rpa3 (FIG. 17).

Hepa1.6 cells = experiment: In vitro competition assay in Hepa1.6 cells; format: cell-based, mouse; settings: five passages 1:8
Excerpt: Two days after transduction with a GFP-tagged vector, the number of fluorescent cells was quantified. Cells were passaged 1:8 five times, and the number of GFPpositive transduced cells was quantified at each passage.

[5] = system: mouse liver carcinoma cells; experiment: Subcutaneous liver carcinoma tumor growth after doxycycline induction of shRNA; format: in vivo, nude mice; settings: doxycycline 2 mg/ml in drinking water from two weeks after injection
Method: One million mouse liver carcinoma cells transduced with an inducible shRpa3.457 were injected subcutaneously in nude mice. Two weeks after injection, mice were either treated with doxycycline 2 mg/ml in their drinking water, or left untreated. Change in tumor volumes was measured following treatment.

Molecule: N[C@@H]1C[C@H]1c1ccccc1 (racemic) [tranylcypromine]
- proliferation [1]: dose-dependent inhibition
- growth [2]: no impact
- growth (HL60): an effect on growth
- growth (Kasumi1): an effect on growth
- growth (Molm13): an effect on growth

Molecule: COc1cccc2c1C(=O)c1c(O)c3c(c(O)c1C2=O)C[C@@](O)(C(C)=O)C[C@@H]3O[C@H]1C[C@H](N)[C@H](O)[C@H](C)O1 [daunorubicin]
- toxicity [3]: high toxicity

Molecule: RPA3si1417: siRNA CAUCUUAUGUCCAGUUUAA (SEQ ID NO: 1), derived from v2HS_32101 (listed as RNA, chemistry not fully specified)
- cytotoxicity (reduction in culture confluency over time) (HCT116 cells): more cytotoxic than RPA3si1403

B1: shRpa3.457: shRNA, SEQ ID NO: 60 (nucleic acid)
chain: TGCTGTTGACAGTGAGCGCGCGACTCCTATAATTTCTAATTAGTGAAGCCACAGATGTAATTAGAAATTATAGGAGTCGCTTGCCTACTGCCTCGGA
- effect on colony formation [4]: antiproliferative
- competition with uninfected GFP-negative cells (Hepa1.6 cells): outcompeted by uninfected, GFP-negative cells
- change in tumor volumes [5]: stopped growing or regressed
